According to article PMC12440886, “Inhibition of the oncogenic channel Kv10.1 by the antipsychotic drug penfluridol” (Frontiers in Pharmacology, 2025):

Assays:
Kv10.1 [1] = molecular target: T1, Kv10.1 (Homo sapiens, UniProt O95259); experiment: FLIPR membrane potential fluorescence assay in HEK-Kv10.[…] cells, single concentration ([…]); assay type: cell-based; details: read-out: % decrease in response amplitude at 100 μM
T1 construct: gene KCNH1
T1 sequence (O95259 1-989): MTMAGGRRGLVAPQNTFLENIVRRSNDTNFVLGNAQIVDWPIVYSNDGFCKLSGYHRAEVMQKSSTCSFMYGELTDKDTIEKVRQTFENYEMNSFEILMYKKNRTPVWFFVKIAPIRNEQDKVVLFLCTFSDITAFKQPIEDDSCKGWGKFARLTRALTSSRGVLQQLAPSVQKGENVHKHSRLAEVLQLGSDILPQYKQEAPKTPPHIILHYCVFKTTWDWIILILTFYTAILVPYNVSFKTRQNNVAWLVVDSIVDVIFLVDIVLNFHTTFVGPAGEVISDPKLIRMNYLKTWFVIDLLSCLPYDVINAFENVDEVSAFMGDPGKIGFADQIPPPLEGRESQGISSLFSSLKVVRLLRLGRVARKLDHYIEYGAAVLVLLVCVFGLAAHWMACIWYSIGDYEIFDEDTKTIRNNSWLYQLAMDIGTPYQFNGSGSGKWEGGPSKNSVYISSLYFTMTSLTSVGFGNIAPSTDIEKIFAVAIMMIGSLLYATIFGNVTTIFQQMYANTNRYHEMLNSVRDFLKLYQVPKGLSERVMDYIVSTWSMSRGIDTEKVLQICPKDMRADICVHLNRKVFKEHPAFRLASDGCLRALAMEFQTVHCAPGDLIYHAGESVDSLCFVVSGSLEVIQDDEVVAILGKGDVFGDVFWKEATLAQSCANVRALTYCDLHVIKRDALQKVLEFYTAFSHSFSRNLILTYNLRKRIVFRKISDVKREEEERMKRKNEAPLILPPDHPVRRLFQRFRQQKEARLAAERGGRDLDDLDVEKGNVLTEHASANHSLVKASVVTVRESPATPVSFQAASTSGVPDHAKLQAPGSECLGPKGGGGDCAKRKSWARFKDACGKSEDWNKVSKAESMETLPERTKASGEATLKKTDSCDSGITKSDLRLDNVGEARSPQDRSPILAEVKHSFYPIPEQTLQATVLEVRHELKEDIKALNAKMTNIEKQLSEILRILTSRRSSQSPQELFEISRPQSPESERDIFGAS

Kv10.1 [2] = molecular target: T1, Kv10.1; experiment: whole-cell patch-clamp, HEK293 cells stably expressing human Kv10.[…]; assay type: cell-based

IC50 (Kv10.1 [2]) [nM]	Compound	inhibition at 100 µM (Kv10.1 [1]) [%]
–	CN(C)C(=O)C(CCN1CCC(O)(c2ccc(Cl)cc2)CC1)(c1ccccc1)c1ccccc1 [LP, loperamide]	46.1
2700 ± 300	OC1(c2ccc(Cl)c(C(F)(F)F)c2)CCN(CCCC(c2ccc(F)cc2)c2ccc(F)cc2)CC1 [PNFL, penfluridol]	–
